{
  "source": "patent US10751274B1",
  "about": "“Fast-acting micelle nanoparticle and cosmetic composition comprising same” (FOREST COMPANY, priority 2017, dated 2020)",
  "tested_on": "ICR mouse skin",
  "test": "Mouse skin penetration experiment, Franz diffusion cell",
  "type": "in vitro ADME, ICR outbred albino mice",
  "conditions": "after 24 hr",
  "method": "In order to evaluate the transdermal penetration rate of the micelle nanoparticles of Example 1, a mouse skin penetration experiment was performed through a Franz diffusion cell using the micelle nanoparticles as a sample. The mouse skin was extracted from the back of ICR outbred albino mice (12-week-old, about 50 g, females), which were killed by cervical dislocation. The subcutaneous fat was removed from the extracted skin (1.5 cm×1.5 cm) so that the skin was not hurt, and the dermis was used without being removed. The skin was fixed between the donor and the receptor phase so that the stratum corneum part of the back skin of the prepared ICR mice faced upwards.\nThe transepidermal area contacting the receptor phase was 0.6362 cm^2, and the receptor phase was a mixed solution of 2.0% HCO-60 (in 20% ethanol), showing the highest solubility in the preliminary experiments. 5 ml of the receptor phase was placed in a Franz diffusion cell, and the temperature was maintained at 37.0±0.5° C. using a constant-temperature water bath. Stirring to homogeneity was performed at 150 rpm for 24 hr. 0.5 ml of each sample was applied to the transepidermal surface of the donor, after which 0.75 ml of the receptor phase was collected every 8 hr (a total of 3 times) for 24 hr through a sampling port using a 1 ml syringe and stored in a 1.5 ml tube. Immediately after collection, supplementation with the same amount of the receptor solution was conducted. As such, the collected sample was analyzed through HPLC in order to quantify […] therein.\nIn order to measure the amount of PhS1P remaining on the skin, unpenetrated samples were washed three times with PBS immediately after taking the skin out of the diffusion cell. […] The ethanol was evaporated to dryness, after which PhS1P was dissolved again in 0.75 ml of ethanol, and the amount of PhS1P remaining on the skin was quantified through HPLC. […]",
  "data": [
    {"smiles": "CCCCCCCCCCCCCC[C@@H](O)[C@@H](O)[C@@H](N)COP(=O)(O)O", "note": "[PhS1P solution, phytosphingosine-1-phosphate]", "values": [
      {"measurement": "amount of PhS1P remaining in the stratum corneum (tape stripping)", "value": 1.81, "unit": "µg"},
      {"measurement": "amount of PhS1P that penetrated the skin (final cumulative)", "setting": "receptor phase sampled every 8 hr, 0.5 ml sample", "value": 2.52, "unit": "µg"},
      {"measurement": "amount of PhS1P present in the skin", "setting": "tape-stripped skin", "value": 2.72, "unit": "µg"}
    ]}
  ]
}
